The values below come from ChEMBL document CHEMBL1649217, “Emergence of Klebsiella pneumoniae ST258 with KPC-2 in Poland” (2009).

What is called MIC is the smallest concentration in the dilution series that meets the test's criterion for growth inhibition.

Format in all cases: functional
Assay [1] has as its system Escherichia coli. Description: Antimicrobial activity against rifampicin-resistant Escherichia coli A15 transconjugant expressing beta-lactamase SHV-12 by Etest in presence of beta-lactamase inhibitor clavulanic acid.
Assay [2] deals with Escherichia coli. Description: Antimicrobial activity against rifampicin-resistant Escherichia coli A15 by Etest in presence of beta-lactamase inhibitor clavulanic acid.
For assay [3], the system named is Escherichia coli. Description: Antimicrobial activity against rifampicin-resistant Escherichia coli A15 transconjugant expressing beta-lactamase KPC-2/TEM-1 by Etest in presence of beta-lactamase inhibitor clavulanic acid.
Assay [4] deals with Klebsiella pneumoniae. Nature of the assay: Antimicrobial activity against Klebsiella pneumoniae isolate 2641/08 obtained from urine of patient with ischemic cardiomyopathy and several comorbidities by Etest in presence of beta-lactamase inhibitor clavulanic acid. To be noted: isolate 2641/08, Urine.
The test system of assay [5] is Klebsiella pneumoniae. Nature of the assay: Antimicrobial activity against Klebsiella pneumoniae isolate 2641/08 obtained from urine of patient with ischemic cardiomyopathy and several comorbidities by Etest.
Assay [6] relates to Escherichia coli. Nature of the assay: Antimicrobial activity against rifampicin-resistant Escherichia coli A15 by Etest.
Assay [7] deals with Escherichia coli. Nature of the assay: Antimicrobial activity against rifampicin-resistant Escherichia coli A15 transconjugant expressing beta-lactamase KPC-2/TEM-1 by Etest.
Assay [8] has as its system Escherichia coli. Description: Antimicrobial activity against rifampicin-resistant Escherichia coli A15 transconjugant expressing beta-lactamase SHV-12 by Etest.
Assay [9] deals with Klebsiella pneumoniae. Nature of the assay: Antimicrobial activity against Klebsiella pneumoniae isolate 2641/08 obtained from urine of patient with ischemic cardiomyopathy and several comorbidities by Etest in presence of beta-lactamase inhibitor Tazobactam. The settings on record: isolate 2641/08, Urine.
Assay [10] relates to Escherichia coli. Nature of the assay: Antimicrobial activity against rifampicin-resistant Escherichia coli A15 transconjugant expressing beta-lactamase SHV-12 by Etest in presence of beta-lactamase inhibitor Tazobactam.
Assay [11] deals with Escherichia coli. Description: Antimicrobial activity against rifampicin-resistant Escherichia coli A15 by Etest in presence of beta-lactamase inhibitor Tazobactam.
Assay [12] deals with Escherichia coli. Description: Antimicrobial activity against rifampicin-resistant Escherichia coli A15 transconjugant expressing beta-lactamase KPC-2/TEM-1 by Etest in presence of beta-lactamase inhibitor Tazobactam.
For assay [13], the system named is Klebsiella pneumoniae. Nature of the assay: Antimicrobial activity against Klebsiella pneumoniae isolate 2337/08 obtained from patient with ischemic cardiomyopathy and several comorbidities.

≈ marks a conversion by molar mass, not a printed value.

Consider `CC1(C)S[C@@H]2[C@H](NC(=O)[C@H](N)c3ccc(O)cc3)C(=O)N2[C@H]1C(=O)O` [AMOXICILLIN], for which the MIC is 4 µg/mL in the assay on Escherichia coli [1], 4 µg/mL in the assay with Escherichia coli [2], 24 µg/mL with Escherichia coli [3] and over 256 µg/mL in the assay with Klebsiella pneumoniae [4].

Regarding GENTAMICIN, the MIC against Klebsiella pneumoniae [5] worked out at 1 µg/mL; with Escherichia coli [6], 0.19 µg/mL; in the assay with Escherichia coli [7], 0.25 µg/mL; against Escherichia coli [8] it was 0.19 µg/mL.

As for `CN(C)c1cc(NC(=O)CNC(C)(C)C)c(O)c2c1C[C@H]1C[C@H]3[C@H](N(C)C)C(O)=C(C(N)=O)C(=O)[C@@]3(O)C(O)=C1C2=O` [TIGECYCLINE], the minimal inhibitory concentration (MIC) in the assay on Klebsiella pneumoniae [5] (isolate 2641/08, Urine) is 3 µg/mL (≈ 5.12 µM); with Escherichia coli [6] it was 0.38 µg/mL (≈ 0.649 µM); with Escherichia coli [7], 0.38 µg/mL (≈ 0.649 µM); in the assay on Escherichia coli [8], 0.38 µg/mL (≈ 0.649 µM).

As for `O=C(O)c1cn(C2CC2)c2cc(N3CCNCC3)c(F)cc2c1=O` [CIPROFLOXACIN], in the assay on Klebsiella pneumoniae [5] (isolate 2641/08, Urine), the MIC was over 32 µg/mL.

As for COLISTIN, the minimum inhibitory concentration (MIC) against Klebsiella pneumoniae [5] is 0.38 µg/mL; against Escherichia coli [6], 0.25 µg/mL; with Escherichia coli [7] it was 0.25 µg/mL; in the assay with Escherichia coli [8], 0.19 µg/mL.

Consider `CCN1CCN(C(=O)N[C@@H](C(=O)N[C@@H]2C(=O)N3[C@@H]2SC(C)(C)[C@@H]3C(=O)O)c2ccccc2)C(=O)C1=O` [PIPERACILLIN], for which the minimal inhibitory concentration (MIC) in the assay with Klebsiella pneumoniae [9] is over 256 µg/mL; against Klebsiella pneumoniae [5] (isolate 2641/08, Urine), over 256 µg/mL; in the assay on Escherichia coli [10], 1 µg/mL; against Escherichia coli [6] it was 1.5 µg/mL (≈ 2.9 µM); in the assay on Escherichia coli [7], 96 µg/mL (≈ 185 µM); in the assay with Escherichia coli [11], 1 µg/mL. The minimal inhibitory concentration (MIC) amounted to 48 µg/mL with Escherichia coli [12] and 32 µg/mL (≈ 61.8 µM) in the assay with Escherichia coli [8].

As for `NCC[C@H](O)C(=O)N[C@@H]1C[C@H](N)[C@@H](O[C@H]2O[C@H](CN)[C@@H](O)[C@H](O)[C@H]2O)[C@H](O)[C@H]1O[C@H]1O[C@H](CO)[C@@H](O)[C@H](N)[C@H]1O` [AMIKACIN], the minimal inhibitory concentration (MIC) stood at 12 µg/mL (≈ 20.5 µM) against Klebsiella pneumoniae [5] (isolate 2641/08, Urine); 1 µg/mL (≈ 1.71 µM) in the assay with Escherichia coli [6]; 1.5 µg/mL (≈ 2.56 µM) in the assay on Escherichia coli [7]; 1 µg/mL (≈ 1.71 µM) in the assay with Escherichia coli [8].

Consider `CO/N=C(\C(=O)N[C@@H]1C(=O)N2C(C(=O)O)=C(COC(C)=O)CS[C@H]12)c1csc(N)n1` [CEFOTAXIME], for which the minimum inhibitory concentration (MIC) against Klebsiella pneumoniae [5] (isolate 2641/08, Urine) was 128 µg/mL (≈ 281 µM); in the assay on Escherichia coli [6], 0.047 µg/mL (≈ 0.103 µM); with Escherichia coli [7], 2 µg/mL (≈ 4.39 µM); with Escherichia coli [8], 1.5 µg/mL (≈ 3.29 µM).

On to `C[C@@H](O)[C@H]1C(=O)N2C(C(=O)O)=C(S[C@@H]3CN[C@H](C(=O)N(C)C)C3)[C@H](C)[C@H]12` [MEROPENEM], for which the minimal inhibitory concentration (MIC) was determined as 3 µg/mL (≈ 7.82 µM) with Klebsiella pneumoniae [5] (isolate 2641/08, Urine); 0.032 µg/mL (≈ 0.0834 µM) in the assay with Escherichia coli [6]; 0.75 µg/mL (≈ 1.96 µM) against Escherichia coli [7]; 0.047 µg/mL (≈ 0.123 µM) in the assay with Escherichia coli [8].

With `CO/N=C(\C(=O)N[C@@H]1C(=O)N2C(C(=O)[O-])=C(C[N+]3(C)CCCC3)CS[C@H]12)c1csc(N)n1`, the minimum inhibitory concentration (MIC) in the assay on Klebsiella pneumoniae [5] (isolate 2641/08, Urine) is over 32 µg/mL; against Escherichia coli [6], 0.047 µg/mL (≈ 0.0978 µM); in the assay on Escherichia coli [7], 1.5 µg/mL (≈ 3.12 µM); with Escherichia coli [8], 0.5 µg/mL (≈ 1.04 µM).

With `C[C@@H](O)[C@H]1C(=O)N2C(C(=O)O)=C(SCCNC=N)C[C@H]12` [IMIPENEM ANHYDROUS], the minimum inhibitory concentration (MIC) in the assay on Klebsiella pneumoniae [5] (isolate 2641/08, Urine) was determined as 2 µg/mL (≈ 6.68 µM); in the assay on Klebsiella pneumoniae [13], 2 µg/mL (≈ 6.68 µM); against Escherichia coli [6], 0.25 µg/mL (≈ 0.835 µM); against Escherichia coli [7], 3 µg/mL (≈ 10 µM); in the assay with Escherichia coli [8] it was 0.25 µg/mL (≈ 0.835 µM).

Consider `CC1(C)S[C@@H]2[C@H](NC(=O)[C@H](N)c3ccccc3)C(=O)N2[C@H]1C(=O)O` [AMPICILLIN], for which the minimal inhibitory concentration (MIC) with Klebsiella pneumoniae [5] (isolate 2641/08, Urine) was over 256 µg/mL; with Escherichia coli [6], 3 µg/mL (≈ 8.59 µM); against Escherichia coli [7] it was over 256 µg/mL; in the assay with Escherichia coli [8], over 256 µg/mL.

Consider `CC(C)(O/N=C(\C(=O)N[C@@H]1C(=O)N2C(C(=O)[O-])=C(C[n+]3ccccc3)CS[C@H]12)c1csc(N)n1)C(=O)O` [CEFTAZIDIME], for which the MIC against Klebsiella pneumoniae [5] (isolate 2641/08, Urine) is over 256 µg/mL; against Escherichia coli [6], 0.25 µg/mL (≈ 0.457 µM); with Escherichia coli [7] it was 3 µg/mL (≈ 5.49 µM); with Escherichia coli [8] it was 16 µg/mL (≈ 29.3 µM).

Regarding `CN(C)[C@@H]1C(O)=C(C(N)=O)C(=O)[C@@]2(O)C(O)=C3C(=O)c4c(O)cccc4[C@@](C)(O)[C@H]3C[C@@H]12` [TETRACYCLINE], the minimum inhibitory concentration (MIC) against Klebsiella pneumoniae [5] (isolate 2641/08, Urine) was determined as 32 µg/mL (≈ 72 µM); in the assay with Escherichia coli [6], 2 µg/mL (≈ 4.5 µM); with Escherichia coli [7] it was 2 µg/mL (≈ 4.5 µM); against Escherichia coli [8], 1.5 µg/mL (≈ 3.38 µM).
